Laboratory results reported in ChEMBL document CHEMBL3638759, “Substituted 2-aza-bicyclo[2.2.1]heptane-3-carboxylic acid (cyano-methyl)-amides inhibitors of cathepsin C” (2014).

Biological target: Dipeptidyl peptidase 1 (Homo sapiens, UniProt P53634)
Assay: Inhibition Assay: The following buffers were used: MES buffer: 25 mM MES, 50 mM NaCl, 5 mM DTT, adjusted to pH 6.0, containing 0.1% BSA; TAGZyme Buffer: 20 mM NaH2PO4, 150 mM NaCl adjusted to pH is 6.0 with HClAssay Conditions:The recombinant human DPPI was diluted in TAGZyme buffer to 1 U/ml (38.1 ug/ml, respectively), and then activated by mixing in a 1:2 ratio with a Cysteamine aqueous solution (2 mM) and incubating for 5 mM at room temperature.Five uL test compound (final concentration 0.1 nM to 100 uM) in aqua bidest (containing 4% DMSO, final DMSO concentration 1%) were mixed with 10 uL of DPPI in MES buffer (final concentration 0.0125 ng/uL) and incubated for 10 min. Then, 5 uL of substrate in MES buffer (final concentration 50 uM) were added. The microtiter plates were then incubated at room temperature for […] Then, the reaction was stopped by adding 10 uL of Gly-Phe-DMK in MES-buffer (final concentration 1 uM).

Sequence of Dipeptidyl peptidase 1 (P53634 25-134 limits assumed): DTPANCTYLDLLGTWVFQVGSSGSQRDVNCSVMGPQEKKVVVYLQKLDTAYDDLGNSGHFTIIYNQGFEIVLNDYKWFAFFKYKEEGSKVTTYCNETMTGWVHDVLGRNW
Sequence of Dipeptidyl peptidase 1 (P53634 231-394 limits assumed): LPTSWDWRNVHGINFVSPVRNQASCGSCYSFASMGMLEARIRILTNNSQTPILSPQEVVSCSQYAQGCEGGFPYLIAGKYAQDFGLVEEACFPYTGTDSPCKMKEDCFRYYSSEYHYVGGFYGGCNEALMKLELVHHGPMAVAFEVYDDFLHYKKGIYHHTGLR
Sequence of Dipeptidyl peptidase 1 (P53634 395-463 limits assumed): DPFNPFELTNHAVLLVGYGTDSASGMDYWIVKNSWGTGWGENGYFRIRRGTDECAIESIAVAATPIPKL

Ki: 3.6 nM
Compound: CN1C(=O)Cc2ccc(-c3sc(CC(C#N)NC(=O)[C@H]4N[C@@H]5CC[C@H]4C5)c(F)c3Br)cc21 (stereo partly specified)
